Each structure is given as a SMILES string. Values joined by “and” are separate entries in the source; they are usually repeats but may differ in a detail not shown here. Equal entries are not always repeated.

One data set concerns Phytophthora infestans. The data set can be described thus: whole plant or invertebrate. Type of data set: in vivo. The following applies: in Solanum lycopersicum, foliar, read-out: disease control.
Another data set deals with Plasmopara viticola. Nature of the data set: Plasmopara viticola/Grape/Leaf Disc Preventative (Grape Downy Mildew). The following applies: foliar, grape vine leaf disks, inoculated 1 day after application, assessed 6-8 days after application, read-out: disease control. Type of data set: in vivo. As to the method:
Plasmopara viticola/Grape/Leaf Disc Preventative (Grape Downy Mildew)
Grape vine leaf disks are placed on water agar in multiwell plates (24-well format) and sprayed with the formulated test compound diluted in water. The leaf disks are inoculated with a spore suspension of the fungus 1 day after application. The inoculated leaf disks are incubated at 19° C. and 80% rh under a light regime of 12 h light/12 h darkness in a climate cabinet and the activity of a compound is assessed as percent disease control compared to untreated when an appropriate level of disease damage appears in untreated check leaf disks (6-8 days after application).

`Cc1cc(C(F)(F)F)nn1CC(=O)N1CCC(c2nc(NC(=O)[C@@H]3CCCc4ccccc43)cs2)CC1` [I.g.001, (R)-1,2,3,4-tetrahydro-naphthalene-1-carboxylic acid (2-{1-[2-(5-methyl-3-trifluoromethyl-pyrazol-1-yl)-acetyl]-piperidin-4-yl}-thiazol-4-yl)amide]: the melting point was found to be 175 °C. The pest or weed control at 200 ppm in the data set with Phytophthora infestans was at least 80%. Besides, the pest or weed control at 200 ppm with Plasmopara viticola was at least 80%.
In the case of `Cc1cc(C(F)(F)F)nn1CC(=O)N1CCC(c2nc(NC(=O)C3CCCc4ccccc43)cs2)CC1` (centres unmarked) [I.g.011, 1,2,3,4-tetrahydro-naphthalene-1-carboxylic acid (2-{1-[2-(5-methyl-3-trifluoromethyl-pyrazol-1-yl)-acetyl]-piperidin-4-yl}-thiazol-4-yl)amide], the melting point is 179 to 181 °C and 179.2 to 181.3 °C. Further, the pest or weed control at 200 ppm with Phytophthora infestans is at least 80%. In the data set with Plasmopara viticola, the pest or weed control at 200 ppm is at least 80%.
Take `Cc1cc(C(F)(F)F)nn1CC(=O)N1CCC(c2nc(NC(=O)OC3CCCc4ccccc43)cs2)CC1` (centres unmarked) [I.g.013, (2-{1-[2-(5-methyl-3-trifluoromethyl-pyrazol-1-yl)-acetyl]-piperidin-4-yl}-thiazol-4-yl)-carbamic acid 1,2,3,4-tetrahydro-naphthalen-1-yl ester]: the pest or weed control at 200 ppm in the data set on Phytophthora infestans and in the data set with Plasmopara viticola was at least 80% in each case.
Turning to `Cc1cc(C(F)(F)F)nn1CC(=O)N1CCC(c2nc(NC(=O)Nc3ccccc3)cs2)CC1` [I.g.024, 1-(2-{1-[2-(5-methyl-3-trifluoromethyl-pyrazol-1-yl)-acetyl]-piperidin-4-yl}-thiazol-4-yl)-3-phenyl-urea], the melting point came out at 192.6 °C. For the same molecule, the pest or weed control at 200 ppm with Phytophthora infestans was at least 80%. Besides, the pest or weed control at 200 ppm with Plasmopara viticola was at least 80%.
For `Cc1ccc(C)c(CC(=O)N2CCC(c3nc(NC(=O)C4CCCc5ccccc54)cs3)CC2)c1` (centres unmarked) [I.g.136, 1,2,3,4-tetrahydro-naphthalene-1-carboxylic acid (2-{1-[2-(2,5-dimethylphenyl)-acetyl]-piperidin-4-yl}-thiazol-4-yl)-amide], in the data set with Phytophthora infestans, the pest or weed control at 200 ppm is at least 80%.
Turning to `Cc1ccc(C)c(CS(=O)(=O)N2CCC(c3nc(NC(=O)c4ccccc4)cs3)CC2)c1` [I.g.246, N-{2-[1-(2,5-Dimethyl-phenylmethanesulfonyl)-piperidin-4-yl]-thiazol-4-yl}-benzamide], the melting point lay within 173 to 175 °C. Besides, the pest or weed control at 200 ppm in the data set with Plasmopara viticola is at least 80%.
`Cc1ccccc1CC(=O)N1CCC(c2nc(NC(=O)C3CCCc4ccccc43)cs2)CC1` (centres unmarked) [I.g.386, 1,2,3,4-tetrahydro-naphthalene-1-carboxylic acid {2-[1-(2-o-tolyl-acetyl)-piperidin-4-yl]thiazol-4-yl}-amide] came in with a melting point of 174 to 175 °C. Besides, the pest or weed control at 200 ppm with Phytophthora infestans is at least 80%. In addition, the pest or weed control at 200 ppm in the data set with Plasmopara viticola is at least 80%.
As to `Cc1cc(C(F)(F)F)nn1CC(=O)N1CCC(c2nc(NC(=O)c3cccc(F)c3O)cs2)CC1` [I.g.501, 3-fluoro-2-hydroxy-N-(2-{1-[2-(5-methyl-3-trifluoromethyl-pyrazol-1-yl)-acetyl]-piperidin-4-yl}-thiazol-4-yl)-benzamide], the pest or weed control at 200 ppm in the data set on Phytophthora infestans and with Plasmopara viticola was at least 80% throughout.
With `Cc1cc(C(F)(F)F)nn1CC(=O)N1CCC(c2nc(NC(=O)c3cccc(Br)c3O)cs2)CC1` [I.g.502, 3-bromo-2-hydroxy-N-(2-{1-[2-(5-methyl-3-trifluoromethyl-pyrazol-1-yl)-acetyl]-piperidin-4-yl}-thiazol-4-yl)-benzamide], the melting point is 193 to 195 °C.
`Cc1cc(C(F)(F)F)nn1CC(=O)N1CCC(c2nc(NC(=O)c3ccccc3O)cs2)CC1` [I.g.503, 2-hydroxy-N-(2-{1-[2-(5-methyl-3-trifluoromethyl-pyrazol-1-yl)-acetyl]-piperidin-4-yl}-thiazol-4-yl)-benzamide]: the pest or weed control at 200 ppm with Phytophthora infestans and in the data set on Plasmopara viticola was at least 80% each time.
In the case of `Cc1ccc(S(=O)(=O)Nc2ccccc2C(=O)Nc2csc(C3CCN(C(=O)Cn4nc(C(F)(F)F)cc4C)CC3)n2)cc1` [I.g.508, N-(2-{1-[2-(5-methyl-3-trifluoromethyl-pyrazol-1-yl)-acetyl]-piperidin-4-yl}-thiazol-4-yl)-2-(toluene-4-sulfonylamino)-benzamide], the pest or weed control at 200 ppm with Phytophthora infestans and in the data set on Plasmopara viticola was at least 80% throughout.
With `COc1cccc(O)c1C(=O)Nc1csc(C2CCN(C(=O)Cn3nc(C(F)(F)F)cc3C)CC2)n1` [I.g.509, 2-methoxy-6-hydroxy-N-(2-{1-[2-(5-methyl-3-trifluoromethyl-pyrazol-1-yl)-acetyl]-piperidin-4-yl}-thiazol-4-yl)-benzamide], the pest or weed control at 200 ppm with Phytophthora infestans and in the data set on Plasmopara viticola was at least 80% each time.
Consider `Cc1cc(C(F)(F)F)nn1CC(=O)N1CCC(c2nc(NC(=O)c3c(O)cccc3F)cs2)CC1` [I.g.510, 2-fluoro-6-hydroxy-N-(2-{1-[2-(5-methyl-3-trifluoromethyl-pyrazol-1-yl)-acetyl]-piperidin-4-yl}-thiazol-4-yl)-benzamide], for which the pest or weed control at 200 ppm in the data set on Phytophthora infestans and in the data set on Plasmopara viticola was at least 80% in each case.
`COc1cccc(C(=O)Nc2csc(C3CCN(C(=O)Cn4nc(C(F)(F)F)cc4C)CC3)n2)c1O` [I.g.511, 3-methoxy-2-hydroxy-N-(2-{1-[2-(5-methyl-3-trifluoromethyl-pyrazol-1-yl)-acetyl]-piperidin-4-yl}-thiazol-4-yl)-benzamide]: in the data set with Phytophthora infestans, the pest or weed control at 200 ppm was at least 80%.
Still for that read-out and setting: in the case of `Cc1cc(C(F)(F)F)nn1CC(=O)N1CCC(c2nc(N(C)C(=O)C3CCCc4ccccc43)cs2)CC1` (centres unmarked) [I.h.011, 1,2,3,4-tetrahydro-naphthalene-1-carboxylic acid methyl-(2-{1-[2-(5-methyl-3-trifluoromethyl-pyrazol-1-yl)-acetyl]-piperidin-4-yl}-thiazol-4-yl)-amide] it was at least 80%.
As for `Cc1cc(C(F)(F)F)nn1CC(=O)N1CCN(c2nc(NC(=O)C3CCCc4ccccc43)cs2)CC1` (centres unmarked) [I.n.011, 1,2,3,4-Tetrahydro-naphthalene-1-carboxylic acid (2-{4-[2-(5-methyl-3-trifluoromethyl-pyrazol-1-yl)acetyl]-piperazin-1-yl}-thiazol-4-yl)amide], the melting point was 207 to 209 °C. Also, the pest or weed control at 200 ppm in the data set on Phytophthora infestans was at least 80%. In the data set on Plasmopara viticola, the pest or weed control at 200 ppm was at least 80%.
For the molecule `Cc1cc(C(F)(F)F)nn1CC(=O)N1CCN(c2nc(NC(=O)c3ccccc3)cs2)CC1` [I.n.021, N-(2-{4-[2-(5-methyl-3-trifluoromethyl-pyrazol-1-yl)-acetyl]-piperazin-1-yl}-thiazol-4-yl)-benzamide], the pest or weed control at 200 ppm in the data set with Phytophthora infestans and with Plasmopara viticola was at least 80% throughout.
